The source of these data is patent US8106080B2, “Compositions and methods for enhancing nitric oxide delivery” (priority 2006, dated 2012).

The structures appear in SMILES notation. Read-outs that look alike come from different tables or passages of the source. Marks after values point to notes of the source that are not given here.

Data set [1] concerns EDL muscles from normal C57Black/6 mice. Description: DNA synthesis ([3H]-thymidine) in whole-muscle EDL culture, normal mice. Type of data set: cell-based. Particulars: NO donor alone; whole mouse EDL-muscle cultures; FIG. 2. The protocol: The proposed model of satellite cell activation as a function of NO is supported by a study of the effect of two known NO donor compounds-ISDN and DPTA-on whole mouse EDL-muscle cultures (FIG. 2), which studies were performed using in vitro methods described below. Results are reported in dpm (“disintegrations per minute”) per amount of DNA (here μg). […] In all cases, each sample was assayed in duplicate for counts, and in triplicate for DNA content (micrograms), the latter according to a standard curve of 5 or more standard concentrations that was established with a regression line having r^2 in the linear regression analysis greater than 0.97 at each assay.
Extensor digitorum longus (EDL) muscles were dissected cleanly and carefully from normal C57Black/6 mice (8 weeks old) without stretching or trauma that could easily activate satellite cells. Each muscle was aligned radially in one well of a 6-well Flex II culture plate (Flexcell International, N.C., USA), and the tendons were pinned so the muscle was at resting length. […]
(§1) DNA was isolated from the tissues. DNA synthesis was assayed by scintillation counting in Ready Safe scintillation cocktail (Beckman), and the concentration of DNA in each sample was assayed using a fluorescence assay (calibrated against a standard curve). The data were calculated as DNA synthesis per microgram of DNA in each sample.

The subject of data set [2] is EDL muscles from old (12-month-old) normal mice. Description: DNA synthesis in whole-muscle EDL culture from 12-month-old mice. The conditions noted are these: MyoNovin higher dose of 2, L-NAME both doses (very high), FIG. 19. Type of data set: cell-based, mouse. On the procedure:
[…] Each muscle was aligned radially in one well of a 6-well Flex II culture plate (Flexcell International, N.C., USA), and the tendons were pinned so the muscle was at resting length. The muscles were incubated in growth medium ([…], DMEM, containing 15% v/v horse serum (HyClone Laboratories Inc.) and 2% v/v chick embryo extract (ICN Biomedicals) at 37° C. in 5% CO2). Muscles in the wells were treated with or without an NO donor. [^3H]-Thymidine was added to the medium at the beginning of treatment, and cultures were maintained for 24 hours to allow incorporation of the isotope into new DNA. At the end of 24 hours, muscles were removed from wells, tendons were trimmed away, and the muscles were frozen at −20° C. for future analysis.
as §1
Data from an experiment on EDL muscles in culture, isolated from old (12-month-old) normal […] mice were conducted using the method described above for methocarbomol and ISDN.
In this experiment, muscles were treated with MyoNovin (2 doses) or the NOS inhibitor, L-NAME (2 doses).

In data set [3] the test system is back muscle tissue homogenate. Nature of the data set: EPR assay of NO release, back muscle homogenate. The class given is biochemical, mouse. On the procedure:
(§2) In the experiment liver and back muscle tissue taken from C57Black/6 mice were homogenized in ice-cold sucrose buffer. A small amount of MyoNovin was dissolved in dimethylsulfoxide and added to the tissue homogenates. An NO spin-trap molecule N-Methyl-D-glucamine dithiocarbamate (MGD) was added to the homogenate-MyoNovin mixture as a stable iron complex [10 μl of 50 mM MGD in saline; (containing MGD at 50 mM and Fe^2+ at 10 mM)] in order to trap any NO released from the tissue homogenate. The entire homogenate mixture plus NO spin-trap solution was then incubated for 1 hour at 37° C. After incubation, a sample of homogenate (16 μl) was loaded into a quartz capillary tube for determination of the EPR spectrum. EPR spectra were then obtained using a Bruker EMXEPR spectrometer (Bruker, Co., Billerica, Mass.) at room temperature (25° C.). The instrument settings were: 9.25 GHz microwave frequency; 100 kHz modulation frequency; 20 mW microwave power, 4 G modulation amplitude, 40 ms time constant, 42 s scan time, and 100 Gauss scan range, and 3410 G center field.
(§3) FIG. 20 is a compilation of the spectra obtained. Curve A represents a blank control sample (the homogenate and NO spin-trap for the EPR assay, without the addition of MyoNovin). Curve B is an NO standard (homogenate and NO spin-trap for the EPR assay, bubbled with NO gas). […]

In the next data set the test system is liver tissue homogenate. Nature of the data set: EPR assay of NO release, liver homogenate. Type of data set: biochemical, mouse. Particulars: MGD spin-trap, 1 hour at 37° C., FIG. 20. The protocol:
as §2, §3

The subject of the next data set is mdx dystrophic mice. Description: DNA synthesis in back muscle after topical application, mdx mice. Type of data set: in vivo, mouse. Particulars: transdermal, FIG. 18. The source says:
Ointments were applied according to the following procedure. • 1. Animals were anesthetized with isoflurane and the mid-dorsal skin (on the back) was shaved, washed with soap and water, and air dried. • 2. The ointment was applied to the sterile pad on an adhesive bandage. Control bandages were coated with the ointment base only. After topical application in which the bandages were applied to the shaved back region, bandages were wrapped with medical adhesive. The animals had the Elizabethan collar fitted while under anesthesia, to prevent their later chewing at the adhesive tape. Eyes were irrigated regularly, as animals were unable to groom well while wearing the cone. • 3. Animals were treated for a total of 24 hours. There were no apparent effects of treatment on behaviour. • 4. Two hours before euthanasia, the mice were injected with 2 μCi per gram body weight of tritiated-thymidine (intra peritoneal) to label DNA synthesis. • 5. At 24 hours from the start of ointment application, animals were euthanized using cervical dislocation under anesthesia provided by pentobarbital injection. […] DNA synthesis was assayed by scintillation counting in Ready Safe scintillation cocktail (Beckman), and the concentration of DNA in each sample was assayed using a fluorescence assay (calibrated against a standard curve). The data were calculated as DNA synthesis per microgram of DNA in each sample. […]

[4] abbreviates: 0.25% carisoprodol, 1% DETA, topical, FIG. 8.
Where [5] appears, read: 1% methocarbamol, 0.2% ISDN ointment, topical 24 h, FIG. 7.
Setting [6] is: back muscle, topical ointment on back, 24 h, DNA synthesis per microgram of DNA.
[7] abbreviates: gut (positive control tissue), topical ointment on back, 24 h, per microgram of DNA.
The mark [8] stands for this setting: heart (negative control tissue), topical ointment on back, 24 h, per microgram of DNA.
[9] abbreviates: quadriceps, topical ointment on back, 24 h, DNA synthesis per microgram of DNA.

Turning to `NCCN(CCN)/[N+]([O-])=N/O` [DETA, diethylenetriamine-NONOate], in the data set on normal C57Black/6 mice (setting [4]), the “DNA synthesis in back muscle (in words)” value was “induce increased DNA synthesis” and the “DNA synthesis in quadriceps (in words)” value is reported as “induce increased DNA synthesis”.
Consider `NCCCN(CCCN)/[N+]([O-])=N/O` [DPTA, dipropylenetriamine-NONOate], for which, in data set [1], the “DNA synthesis (3H-thymidine incorporation) compared to a control muscle” value is “stimulate an increase in DNA synthesis”.
Turning to `O=[N+]([O-])O[C@H]1CO[C@H]2[C@@H]1OC[C@H]2O[N+](=O)[O-]` [ISDN, isosorbide dinitrate], the “DNA synthesis in back muscle (in words)” value in the data set with normal C57Black/6 mice (setting [5]) is reported as “increase in DNA synthesis”. The “DNA synthesis (3H-thymidine incorporation) compared to a control muscle” value in data set [1] is “stimulate an increase in DNA synthesis”.
Consider `COC(=O)[C@@H](N)CCCNC(=N)N[N+](=O)[O-]` [L-NAME, L-nitro-arginine methyl ester], for which, in data set [2], the “DNA synthesis in EDL muscles in culture” value is reported as “decreased DNA synthesis”.
Turning to `COc1ccccc1OCC(O)COC(N)=O` (stereo not shown) [MC, methocarbamol], the “DNA synthesis in back muscle (in words)” value in the data set with normal C57Black/6 mice (setting [5]) is reported as “increase in DNA synthesis”. In addition, the “DNA synthesis, Back Muscle, Mean” value in the data set with normal C57Black/6 mice (back muscle, mean of experiments, outliers (*) excluded, MC/ISDN mean covers samples (a) and (b)) was 427.5. Besides, in the data set with normal C57Black/6 mice (setting [6]), the “DNA synthesis, Back Muscle, Experiment 1” value is listed as 430.5; the “DNA synthesis, Back Muscle, Experiment 2” value is reported as 734*; the “DNA synthesis, Back Muscle, Experiment 3” value turned out to be 422.7; the “DNA synthesis, Back Muscle, Experiment 4” value is on record as 429.43. Besides, in the data set with normal C57Black/6 mice (setting [7]), the “DNA synthesis, Gut, Experiment 2” value is on record as 123; the “DNA synthesis, Gut, Experiment 3” value came out at 239.2; the “DNA synthesis, Gut, Experiment 4” value came to 225.9. The “DNA synthesis, Gut, Mean” value in the data set with normal C57Black/6 mice (gut, mean of experiments, MC/ISDN mean covers samples (a) and (b)) is on record as 196.0. For the same compound, in the data set with normal C57Black/6 mice (setting [8]), the “DNA synthesis, Heart, Experiment 2” value was 186; the “DNA synthesis, Heart, Experiment 3” value turned out to be 221.3; the “DNA synthesis, Heart, Experiment 4” value was 240.76. Further, in the data set with normal C57Black/6 mice (heart, mean of experiments, MC/ISDN mean covers samples (a) and (b)), the “DNA synthesis, Heart, Mean” value stood at 216.0. Besides, in the data set on normal C57Black/6 mice (quadriceps, mean of experiments, MC/ISDN mean covers samples (a) and (b)), the “DNA synthesis, Quadriceps, Mean” value is given as 456.3. Moreover, in the data set on normal C57Black/6 mice (setting [9]), the “DNA synthesis, Quadriceps, Experiment 1” value is listed as 507; the “DNA synthesis, Quadriceps, Experiment 2” value was 573; the “DNA synthesis, Quadriceps, Experiment 3” value stood at 404.1; the “DNA synthesis, Quadriceps, Experiment 4” value is recorded as 340.9.
Consider `COc1ccccc1OCC(CO[N+](=O)[O-])O[N+](=O)[O-]` (stereo not shown) [MyoNovin, 1,2-di-O-nitro-3(o-methoxyphenoxy)-propanediol], for which the “NO release (EPR)” value is given as “strong release of NO” in data set [3] (back muscle homogenate, MGD spin-trap, 1 hour at 37° C., FIG. 20) and “strong release of NO” in the data set on liver tissue homogenate. The “time-course of NO release” value in data set [3] (back muscle homogenates, FIG. 21) was “more than two hours”. The “DNA synthesis in EDL muscles in culture” value in data set [2] is given as “increased DNA synthesis”. For the same compound, the “side effects to animal behaviour, appearance or weight” value in the data set on normal C57Black/6 mice (transdermal MyoNovin, 24 h, normal mice) is on record as “no apparent side effects”. The “increase in muscle cell proliferation (DNA synthesis)” value with normal C57Black/6 mice (transdermal, over a 24-hour period, normal mice, FIG. 17) is 37-39%. For the same compound, the “DNA synthesis in back muscle compared to the control” value in the data set on mdx dystrophic mice is recorded as “decreased”.
As to `CCCC(C)(COC(N)=O)COC(=O)NC(C)C` (stereo not shown) [carisoprodol], in the data set with normal C57Black/6 mice (setting [4]), the “DNA synthesis in back muscle (in words)” value was “induce increased DNA synthesis” and the “DNA synthesis in quadriceps (in words)” value is given as “induce increased DNA synthesis”.
